Structures are written as SMILES. A value given as a limit tells only on which side of the number the result lay.

The record followed here is patent publication US10336697B2, “Spiro[cyclobutane-1,3′-indolin]-2′-one derivatives as bromodomain inhibitors” (Orion Corporation, priority 2015, dated 2019).

The test has as its target Bet BRD4 full length bromo-domain protein (Homo sapiens, UniProt O60885). The test can be described thus: Bet bromodomain TR-FRET assay (displacement of acetyl histone peptide). The following applies: Bet BRD4 full length bromodomain protein, 300 nM acetyl histone peptide substrate, read-out: IC50. Type of test: binding. For orientation: Time-resolved FRET reads energy transfer from a long-lived donor to a nearby acceptor.

Consider `CN1CCCC(Oc2cc(NS(=O)(=O)c3ccc(Cl)cc3F)cc3c2NC(=O)C32CCC2)C1` (centres unmarked) [Compound 131, 4-Chloro-2-fluoro-N-(7′-((1-methylpiperidin-3-yl)oxy)-2′-oxospiro[cyclobutane-1,3′-indolin]-5′-yl)benzenesulfonamide], for which the IC50 was 600 to 1000 nM.

On to `CN1CCC(Oc2cc(NS(=O)(=O)c3ccc(F)cc3Br)cc3c2NC(=O)C32CCC2)CC1` [Compound 132, 2-Bromo-4-fluoro-N-(7′-((1-methylpiperidin-4-yl)oxy)-2′-oxospiro[cyclobutane-1,3′-indolin]-5′-yl)benzenesulfonamide], for which the IC50 was under 600 nM.

Turning to `CN1CCC(Oc2cc(NS(=O)(=O)c3ccccc3Cl)cc3c2NC(=O)C32CCC2)CC1` [Compound 133, 2-Chloro-N-(7′-((1-methylpiperidin-4-yl)oxy)-2′-oxospiro[cyclobutane-1,3′-indolin]-5′-yl)benzenesulfonamide], the IC50 was under 600 nM.

Turning to `CN1CCC(Oc2cc(NS(=O)(=O)c3ccc(F)cc3Cl)cc3c2NC(=O)C32CCC2)CC1` [Compound 134, 2-Chloro-4-fluoro-N-(7′-((1-methylpiperidin-4-yl)oxy)-2′-oxospiro[cyclobutane-1,3′-indolin]-5′-yl)benzenesulfonamide], the IC50 is under 600 nM.

Take `CCN1CCC(Oc2cc(NS(=O)(=O)c3ccccc3OC)cc3c2NC(=O)C32CCC2)CC1` [Compound 135, N-(7′-((1-ethylpiperidin-4-yl)oxy)-2′-oxospiro[cyclobutane-1,3′-indolin]-5′-yl)-2-methoxybenzenesulfonamide]: the IC50 is under 600 nM.

On to `COc1ccccc1S(=O)(=O)Nc1cc(OC2CCN(C(C)C)CC2)c2c(c1)C1(CCC1)C(=O)N2` [Compound 136, N-(7′-((1-isopropylpiperidin-4-yl)oxy)-2′-oxospiro[cyclobutane-1,3′-indolin]-5′-yl)-2-methoxybenzenesulfonamide], for which the IC50 is under 600 nM.

In the case of `COc1ccccc1S(=O)(=O)Nc1cc(OC2CCN(C3CC3)CC2)c2c(c1)C1(CCC1)C(=O)N2` [Compound 137, N-(7′-((1-cyclopropylpiperidin-4-yl)oxy)-2′-oxospiro[cyclobutane-1,3′-indolin]-5′-yl)-2-methoxybenzenesulfonamide], the IC50 was under 600 nM.

For the compound `CN1CCC(Oc2cc(NS(=O)(=O)c3ccc(Cl)cc3F)cc3c2NC(=O)C32CCC2)C1` (centres unmarked) [Compound 138, 4-Chloro-2-fluoro-N-(7′-((1-methylpyrrolidin-3-yl)oxy)-2′-oxospiro[cyclobutane-1,3′-indolin]-5′-yl)benzenesulfonamide], the IC50 was under 600 nM.

For `COc1ccccc1S(=O)(=O)Nc1cc(OC[C@@H]2CCCN2C)c2c(c1)C1(CCC1)C(=O)N2` [Compound 139, (S)-2-methoxy-N-(7′-((1-methylpyrrolidin-2-yl)methoxy)-2′-oxospiro[cyclobutane-1,3′-indolin]-5′-yl)benzenesulfonamide], the IC50 is under 600 nM.

As for `COc1ccccc1S(=O)(=O)Nc1cc(OC2CCCN(C)CC2)c2c(c1)C1(CCC1)C(=O)N2` (centres unmarked) [Compound 140, 2-Methoxy-N-(7′-((1-methylazepan-4-yl)oxy)-2′-oxospiro[cyclobutane-1,3′-indolin]-5′-yl)benzenesulfonamide], the IC50 was under 600 nM.

`COc1ccccc1S(=O)(=O)Nc1cc(OC2CCOCC2)c2c(c1)C1(CCC1)C(=O)N2` [Compound 141, 2-Methoxy-N-(2′-oxo-7′-((tetrahydro-2H-pyran-4-yl)oxy)spiro[cyclobutane-1,3′-indolin]-5′-yl)benzenesulfonamide]: the IC50 is under 600 nM.

`O=C1Nc2c(OC3CCOCC3)cc(NS(=O)(=O)c3ccc(Cl)cc3F)cc2C12CCC2` [Compound 142, 4-Chloro-2-fluoro-N-(2′-oxo-7′-((tetrahydro-2H-pyran-4-yl)oxy)spiro[cyclobutane-1,3′-indolin]-5′-yl)benzenesulfonamide]: the IC50 is under 600 nM.

Consider `COc1ccccc1S(=O)(=O)Nc1cc(OC2CCS(=O)(=O)CC2)c2c(c1)C1(CCC1)C(=O)N2` [Compound 143, N-(7′-((1,1-dioxidotetrahydro-2H-thiopyran-4-yl)oxy)-2′-oxospiro[cyclobutane-1,3′-indolin]-5′-yl)-2-methoxybenzenesulfonamide], for which the IC50 is under 600 nM.

Turning to `O=C1Nc2c(OC3CCS(=O)(=O)CC3)cc(NS(=O)(=O)c3ccc(Cl)cc3F)cc2C12CCC2` [Compound 144, 4-Chloro-N-(7′-((1,1-dioxidotetrahydro-2H-thiopyran-4-yl)oxy)-2′-oxospiro[cyclobutane-1,3′-indolin]-5′-yl)-2-fluorobenzenesulfonamide], the IC50 was under 600 nM.

Take `COc1ccccc1S(=O)(=O)Nc1cc(Oc2ccc(N)nc2)c2c(c1)C1(CCC1)C(=O)N2` [Compound 145, N-(7′-((6-aminopyridin-3-yl)oxy)-2′-oxospiro[cyclobutane-1,3′-indolin]-5′-yl)-2-methoxybenzenesulfonamide]: the IC50 is under 600 nM.

Regarding `COc1ccccc1S(=O)(=O)Nc1cc(OCC2CCN(C)CC2)c2c(c1)C1(CCC1)C(=O)N2` [Compound 146, 2-Methoxy-N-(7′-((1-methylpiperidin-4-yl)methoxy)-2′-oxospiro[cyclobutane-1,3′-indolin]-5′-yl)benzenesulfonamide], the IC50 is under 600 nM.

With `O=C1Nc2c(OCc3ccc(F)cn3)cc(NS(=O)(=O)c3ccc(Cl)cc3F)cc2C12CCC2` [Compound 147, 4-Chloro-2-fluoro-N-(7′-((5-fluoropyridin-2-yl)methoxy)-2′-oxospiro[cyclobutane-1,3′-indolin]-5′-yl)benzenesulfonamide], the IC50 is under 600 nM.

With `COc1ccccc1S(=O)(=O)Nc1cc(OCc2ccc(F)cn2)c2c(c1)C1(CCC1)C(=O)N2` [Compound 148, N-(7′-((5-fluoropyridin-2-yl)methoxy)-2′-oxospiro[cyclobutane-1,3′-indolin]-5′-yl)-2-methoxybenzenesulfonamide], the IC50 was under 600 nM.

`COc1ccccc1S(=O)(=O)Nc1cc(OCc2cncc(F)c2)c2c(c1)C1(CCC1)C(=O)N2` [Compound 149, N-(7′-((5-fluoropyridin-3-yl)methoxy)-2′-oxospiro[cyclobutane-1,3′-indolin]-5′-yl)-2-methoxybenzenesulfonamide]: the IC50 is under 600 nM.

As to `COc1ccccc1S(=O)(=O)Nc1cc(OCc2cccnc2)c2c(c1)C1(CCC1)C(=O)N2` [Compound 157, 2-Methoxy-N-(2′-oxo-7′-(pyridin-3-ylmethoxy)spiro[cyclobutane-1,3′-indolin]-5′-yl)benzenesulfonamide], the IC50 was under 600 nM.

Regarding `COc1ccccc1S(=O)(=O)Nc1cc(OCc2ccccn2)c2c(c1)C1(CCC1)C(=O)N2` [Compound 158, 2-Methoxy-N-(2′-oxo-7′-(pyridin-2-ylmethoxy)spiro[cyclobutane-1,3′-indolin]-5′-yl)benzenesulfonamide], the IC50 was under 600 nM.

Turning to `O=C1Nc2c(OCCc3ccccn3)cc(NS(=O)(=O)c3ccc(Cl)cc3F)cc2C12CCC2` [Compound 159, 4-Chloro-2-fluoro-N-(2′-oxo-7′-(2-(pyridin-2-yl)ethoxy)spiro[cyclobutane-1,3′-indolin]-5′-yl)benzenesulfonamide], the IC50 is under 600 nM.

Consider `Cn1cncc1COc1cc(NS(=O)(=O)c2ccc(Cl)cc2F)cc2c1NC(=O)C21CCC1` [Compound 160, 4-Chloro-2-fluoro-N-(7′-((1-methyl-1H-imidazol-5-yl)methoxy)-2′-oxospiro[cyclobutane-1,3′-indolin]-5′-yl)benzenesulfonamide], for which the IC50 was under 600 nM.

Broadly, the IC50 is the concentration that gives 50% inhibition.
